Measured values: publication PMC6321168, “Comparative Study on Excretive Characterization of Main Components in Herb Pair Notoginseng-Safflower and Single Herbs by LC–MS/MS” (Pharmaceutics, 2018)

Assay: Urinary excretion study in rats after oral NS, SF or CNS (LC–MS/MS)
Type: in vivo
Settings: for concentration at 2 h / concentration at 4 h / concentration at 8 h / concentration at 12 h / concentration at 24 h / concentration at 36 h / concentration at 48 h / concentration at 72 h / concentration at 96 h / concentration at 120 h / concentration at 6 h: male, Sprague Dawley, rat, urine, oral; for Accumulative excretion amount / Accumulative excretion percentage / Excretion amount: rat urine
Protocol: The animal room was set at constant temperature of 20 ± 2 °C with humidity of 50 ± 20% and 12/12 h light/dark cycle.
Eighteen male rats were fasted for 12 h before starting the experiment. The rats were divided into three groups at random (n = 6) and received NS (60 mg/kg), SF (50 mg/kg), and NS (60 mg/kg) + SF (50 mg/kg), respectively, by oral gavage. The rats were placed in separate metabolic cages. The urine samples were collected at 0–2, 2–4, 4–6, 6–8, 8–12, 12–24, 24–36, 36–48, 48–72, 72–96, and 96–120 h. The feces samples were collected at 0–4, 4–8, 8–12, 12–24, 24–36, 36–48, 48–72, 72–96, and 96–120 h. The urine volume was recorded and the dry feces were measured for each collection period. Samples were stored at −80 °C until analysis.
An aliquot of 200 μL urine sample was mixed with 10 μL of IS and evaporated to dryness with a ZLS-2 vacuum centrifugal concentrator (Herexi Co., Ltd., Changsha, Hunan, China). The residue was reconstituted in 100 μL of 50% methanol vortexed for 2 min and centrifuged at 12,000 rpm for 15 min. Finally, a 1 μL aliquot was injected for LC–MS analysis.
Ultra fast liquid chromatography (UFLC) analysis was performed using a Shimadzu UFLC system (DGU-20A3R Degasser; LC-20AD pump; SIL-20AXR Autosampler; CTO-20AC Column Oven) (Nakagyo-Ku, Koyoto, Japan). […] Because of the different endogenous substances in the urine and feces samples, different elution gradients were used to alleviate the matrix effects for the analytes.
The mass spectrometric detection was performed on an ABSciex 4500 Qtrap mass spectrometer (ABSciex, Foster City, CA, USA) equipped with a negative electrospray ionization (ESI) interface using multiple reaction monitoring (MRM). The MS parameters were optimized under the selected ion monitoring conditions as follows: curtain gas, 35 psi; ionspray voltage, 4500 V; turbo gas temperature, 450 °C; GS1, 45 psi; GS2, 45 psi. All data were acquired and analyzed by Analyst software (Versions 1.6.2) from ABSciex.
The accumulative excretion percentage was calculated for each analyte as follows. Excretion at time (t) = [concentration of the analyte (ng/mL) at t] × total urine (or feces) volume (mL) at t. The cumulative excretion up to time t (mg) was expressed as a percent (%) cumulative excretion by dividing by the total amount of the analyte ingested (mg): % Cumulative Excretion = 100 × (Σt excretiont) total ingested.

concentration at 2 h (60 mg/kg, oral NS 60 mg/kg, 2 h): 115 ± 284 ng/mL
concentration at 4 h (60 mg/kg, oral NS 60 mg/kg, 4 h): 245 ± 450 ng/mL
concentration at 8 h (60 mg/kg, oral NS 60 mg/kg, 8 h): 140 ± 196 ng/mL
concentration at 12 h (60 mg/kg, oral NS 60 mg/kg, 12 h): 214 ± 344 ng/mL
concentration at 24 h (60 mg/kg, oral NS 60 mg/kg, 24 h): 240 ± 553 ng/mL
concentration at 36 h (60 mg/kg, oral NS 60 mg/kg, 36 h): 61 ± 54 ng/mL
concentration at 48 h (60 mg/kg, oral NS 60 mg/kg, 48 h): 142 ± 344 ng/mL
concentration at 72 h (60 mg/kg, oral NS 60 mg/kg, 72 h): 84 ± 195 ng/mL
concentration at 96 h (60 mg/kg, oral NS 60 mg/kg, 96 h): 45 ± 104 ng/mL
concentration at 120 h (60 mg/kg, oral NS 60 mg/kg, 120 h): 25 ± 62 ng/mL
concentration at 2 h (oral CNS 110 mg/kg, 2 h): 54 ± 73 ng/mL
concentration at 4 h (oral CNS 110 mg/kg, 4 h): 27 ± 41 ng/mL
concentration at 6 h (oral CNS 110 mg/kg, 6 h): 111 ± 121 ng/mL
concentration at 8 h (oral CNS 110 mg/kg, 8 h): 105 ± 100 ng/mL
concentration at 12 h (oral CNS 110 mg/kg, 12 h): 120 ± 134 ng/mL
concentration at 24 h (oral CNS 110 mg/kg, 24 h): 72 ± 50 ng/mL
concentration at 36 h (oral CNS 110 mg/kg, 36 h): 138 ± 144 ng/mL
concentration at 48 h (oral CNS 110 mg/kg, 48 h): 51 ± 60 ng/mL
concentration at 72 h (oral CNS 110 mg/kg, 72 h): 33 ± 28 ng/mL
concentration at 96 h (oral CNS 110 mg/kg, 96 h): 19 ± 14 ng/mL
concentration at 120 h (oral CNS 110 mg/kg, 120 h): 14 ± 12 ng/mL
concentration at 6 h (oral NS 60 mg/kg, 6 h): 140 ± 244 ng/mL
Accumulative excretion amount (oral CNS 110 mg/kg, 2 h): 0.075 ± 0.093 µg
Accumulative excretion percentage (oral CNS 110 mg/kg, 2 h): 0.002±0.002%
Excretion amount (oral CNS 110 mg/kg, 2 h): 0.075 ± 0.093 µg
Accumulative excretion amount (oral CNS 110 mg/kg, 4 h): 0.106 ± 0.086 µg
Accumulative excretion percentage (oral CNS 110 mg/kg, 4 h): 0.003±0.002%
Excretion amount (oral CNS 110 mg/kg, 4 h): 0.044 ± 0.050 µg
Accumulative excretion amount (oral CNS 110 mg/kg, 6 h): 0.218 ± 0.166 µg
Accumulative excretion percentage (oral CNS 110 mg/kg, 6 h): 0.006±0.004%
Excretion amount (oral CNS 110 mg/kg, 6 h): 0.158 ± 0.142 µg
Accumulative excretion amount (oral CNS 110 mg/kg, 8 h): 0.339 ± 0.213 µg
Accumulative excretion percentage (oral CNS 110 mg/kg, 8 h): 0.009±0.006%
Excretion amount (oral CNS 110 mg/kg, 8 h): 0.212 ± 0.169 µg
Accumulative excretion amount (oral CNS 110 mg/kg, 12 h): 0.472 ± 0.310 µg
Accumulative excretion percentage (oral CNS 110 mg/kg, 12 h): 0.013±0.008%
Excretion amount (oral CNS 110 mg/kg, 12 h): 0.154 ± 0.128 µg
Accumulative excretion amount (oral CNS 110 mg/kg, 24 h): 0.859 ± 0.527 µg
Accumulative excretion percentage (oral CNS 110 mg/kg, 24 h): 0.023±0.014%
Excretion amount (oral CNS 110 mg/kg, 24 h): 0.388 ± 0.391 µg
Accumulative excretion amount (oral CNS 110 mg/kg, 36 h): 1.056 ± 0.587 µg
Accumulative excretion percentage (oral CNS 110 mg/kg, 36 h): 0.028±0.016%
Excretion amount (oral CNS 110 mg/kg, 36 h): 0.197 ± 0.129 µg
Accumulative excretion amount (oral CNS 110 mg/kg, 48 h): 1.303 ± 0.684 µg
Accumulative excretion percentage (oral CNS 110 mg/kg, 48 h): 0.035±0.018%
Excretion amount (oral CNS 110 mg/kg, 48 h): 0.247 ± 0.216 µg
Accumulative excretion amount (oral CNS 110 mg/kg, 72 h): 1.373 ± 0.705 µg
Accumulative excretion percentage (oral CNS 110 mg/kg, 72 h): 0.037±0.019%
Excretion amount (oral CNS 110 mg/kg, 72 h): 0.070 ± 0.060 µg
Accumulative excretion amount (oral CNS 110 mg/kg, 96 h): 1.414 ± 0.715 µg
Accumulative excretion percentage (oral CNS 110 mg/kg, 96 h): 0.038±0.019%
Excretion amount (oral CNS 110 mg/kg, 96 h): 0.040 ± 0.031 µg
Accumulative excretion amount (oral CNS 110 mg/kg, 120 h): 1.436 ± 0.726 µg
Accumulative excretion percentage (oral CNS 110 mg/kg, 120 h): 0.038±0.019%
Excretion amount (oral CNS 110 mg/kg, 120 h): 0.022 ± 0.025 µg
Accumulative excretion amount (oral NS 60 mg/kg, 2 h): 0.075 ± 0.063 µg
Accumulative excretion percentage (oral NS 60 mg/kg, 2 h): 0.002±0.001%
Excretion amount (oral NS 60 mg/kg, 2 h): 0.075 ± 0.063 µg
Accumulative excretion amount (oral NS 60 mg/kg, 4 h): 0.574 ± 1.167 µg
Accumulative excretion percentage (oral NS 60 mg/kg, 4 h): 0.013±0.027%
Excretion amount (oral NS 60 mg/kg, 4 h): 0.872 ± 1.518 µg
Accumulative excretion amount (oral NS 60 mg/kg, 6 h): 0.798 ± 1.077 µg
Accumulative excretion percentage (oral NS 60 mg/kg, 6 h): 0.019±0.025%
Excretion amount (oral NS 60 mg/kg, 6 h): 0.262 ± 0.207 µg
Accumulative excretion amount (oral NS 60 mg/kg, 8 h): 0.863 ± 1.044 µg
Accumulative excretion percentage (oral NS 60 mg/kg, 8 h): 0.021±0.025%
Excretion amount (oral NS 60 mg/kg, 8 h): 0.152 ± 0.084 µg
Accumulative excretion amount (oral NS 60 mg/kg, 12 h): 1.139 ± 1.140 µg
Accumulative excretion percentage (oral NS 60 mg/kg, 12 h): 0.027±0.027%
Excretion amount (oral NS 60 mg/kg, 12 h): 0.276 ± 0.142 µg
Accumulative excretion amount (oral NS 60 mg/kg, 24 h): 1.881 ± 1.352 µg
Accumulative excretion percentage (oral NS 60 mg/kg, 24 h): 0.044±0.032%
Excretion amount (oral NS 60 mg/kg, 24 h): 0.742 ± 0.289 µg
Accumulative excretion amount (oral NS 60 mg/kg, 36 h): 2.275 ± 1.435 µg
Accumulative excretion percentage (oral NS 60 mg/kg, 36 h): 0.053±0.033%
Excretion amount (oral NS 60 mg/kg, 36 h): 0.394 ± 0.221 µg
Accumulative excretion amount (oral NS 60 mg/kg, 48 h): 2.476 ± 1.415 µg
Accumulative excretion percentage (oral NS 60 mg/kg, 48 h): 0.058±0.033%
Excretion amount (oral NS 60 mg/kg, 48 h): 0.201 ± 0.117 µg
Accumulative excretion amount (oral NS 60 mg/kg, 72 h): 2.506 ± 1.429 µg
Accumulative excretion percentage (oral NS 60 mg/kg, 72 h): 0.058±0.033%
Excretion amount (oral NS 60 mg/kg, 72 h): 0.030 ± 0.020 µg
Accumulative excretion amount (oral NS 60 mg/kg, 96 h): 2.521 ± 1.438 µg
Accumulative excretion percentage (oral NS 60 mg/kg, 96 h): 0.060±0.034%
Excretion amount (oral NS 60 mg/kg, 96 h): 0.016 ± 0.011 µg
Accumulative excretion amount (oral NS 60 mg/kg, 120 h): 2.528 ± 1.439 µg
Accumulative excretion percentage (oral NS 60 mg/kg, 120 h): 0.060±0.034%
Excretion amount (oral NS 60 mg/kg, 120 h): 0.006 ± 0.003 µg
SMILES: CC(C)=CCC[C@](C)(O[C@@H]1O[C@H](CO[C@@H]2O[C@H](CO)[C@@H](O)[C@H](O)[C@H]2O)[C@@H](O)[C@H](O)[C@H]1O)[C@H]1CC[C@]2(C)[C@@H]1[C@H](O)C[C@@H]1[C@@]3(C)CC[C@H](O[C@@H]4O[C@H](CO)[C@@H](O)[C@H](O)[C@H]4O[C@@H]4O[C@H](CO)[C@@H](O)[C@H](O)[C@H]4O)C(C)(C)[C@@H]3CC[C@]12C [ginsenoside Rb1]
